Key:
JAK2 = JAK2 (Homo sapiens (Human), UniProt O60674); assay: Biochemical JAK kinase assay (LanthaScreen), JAK2; conditions: for Ki: read-out: JAK2 pKi (converted)
Method in brief: (§1)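 LanthaScreen format: phospho-STAT1 (pTyr701) detected with 2 nM Tb antibody after 10 mM EDTA quench. Kinase step used Km-level ATP and 200 nM STAT1 peptide, 1 h at ambient after 1 h pre-incubation. Inhibition fitted to IC50, reported as pKi.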

JAK1 = JAK1 (Homo sapiens (Human), UniProt P23458); assay: Biochemical JAK kinase assay (LanthaScreen), JAK1; conditions: for Ki: read-out: JAK1 pKi (converted)
Method in brief: as §1

[1] = test system: IL-13 induced STAT6 phosphorylation in BEAS-2B human lung epithelial cells; assay: Cellular JAKI potency assay (BEAS-2B); assay type: cell-based; conditions: BEAS-2B cells; for IC50: Homo sapiens, BEAS-2B, read-out: BEAS2B pIC50 (converted)
Method in brief: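 BEAS-2B cells were preincubated with compound (0.1% DMSO) in HBSS/HEPES/BSA for 1 h at 37 °C, then stimulated with IL-13 (80 ng/mL before addition) for 30 min. After lysis, pSTAT6 (Tyr641) was quantified by AlphaLISA SureFire; IC50 from a 4-parameter fit of percent inhibition, reported as pIC50.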

Sequence of JAK2 (O60674 whole entry): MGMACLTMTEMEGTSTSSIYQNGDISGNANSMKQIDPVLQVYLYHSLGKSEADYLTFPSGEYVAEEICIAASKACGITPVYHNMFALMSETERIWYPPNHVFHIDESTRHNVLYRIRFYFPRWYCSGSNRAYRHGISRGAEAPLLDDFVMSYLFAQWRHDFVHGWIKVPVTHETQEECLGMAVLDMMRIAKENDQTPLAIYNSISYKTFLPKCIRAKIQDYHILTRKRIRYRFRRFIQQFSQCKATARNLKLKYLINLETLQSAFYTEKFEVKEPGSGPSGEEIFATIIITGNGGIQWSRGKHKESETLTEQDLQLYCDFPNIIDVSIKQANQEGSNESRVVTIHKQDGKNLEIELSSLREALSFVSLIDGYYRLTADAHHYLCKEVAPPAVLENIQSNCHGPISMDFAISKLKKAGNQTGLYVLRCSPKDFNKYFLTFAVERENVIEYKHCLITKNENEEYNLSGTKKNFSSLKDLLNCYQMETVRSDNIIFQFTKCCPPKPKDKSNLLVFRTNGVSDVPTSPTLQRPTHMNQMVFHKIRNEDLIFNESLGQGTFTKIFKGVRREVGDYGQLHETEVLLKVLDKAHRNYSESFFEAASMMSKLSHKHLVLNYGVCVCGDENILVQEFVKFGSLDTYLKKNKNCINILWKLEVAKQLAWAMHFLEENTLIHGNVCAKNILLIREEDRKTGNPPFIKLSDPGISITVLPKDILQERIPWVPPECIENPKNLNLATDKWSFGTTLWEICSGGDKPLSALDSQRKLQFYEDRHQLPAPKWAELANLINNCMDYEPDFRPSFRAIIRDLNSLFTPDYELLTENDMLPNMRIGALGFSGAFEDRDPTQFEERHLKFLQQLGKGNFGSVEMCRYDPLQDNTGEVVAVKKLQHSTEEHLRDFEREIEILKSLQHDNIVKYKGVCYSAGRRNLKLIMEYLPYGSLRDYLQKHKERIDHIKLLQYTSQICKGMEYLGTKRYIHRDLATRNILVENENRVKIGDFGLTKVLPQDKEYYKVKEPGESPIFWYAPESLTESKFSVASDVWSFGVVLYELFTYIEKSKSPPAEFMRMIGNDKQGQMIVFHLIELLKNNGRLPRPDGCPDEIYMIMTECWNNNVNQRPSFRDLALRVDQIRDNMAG
Sequence of JAK1 (P23458 whole entry): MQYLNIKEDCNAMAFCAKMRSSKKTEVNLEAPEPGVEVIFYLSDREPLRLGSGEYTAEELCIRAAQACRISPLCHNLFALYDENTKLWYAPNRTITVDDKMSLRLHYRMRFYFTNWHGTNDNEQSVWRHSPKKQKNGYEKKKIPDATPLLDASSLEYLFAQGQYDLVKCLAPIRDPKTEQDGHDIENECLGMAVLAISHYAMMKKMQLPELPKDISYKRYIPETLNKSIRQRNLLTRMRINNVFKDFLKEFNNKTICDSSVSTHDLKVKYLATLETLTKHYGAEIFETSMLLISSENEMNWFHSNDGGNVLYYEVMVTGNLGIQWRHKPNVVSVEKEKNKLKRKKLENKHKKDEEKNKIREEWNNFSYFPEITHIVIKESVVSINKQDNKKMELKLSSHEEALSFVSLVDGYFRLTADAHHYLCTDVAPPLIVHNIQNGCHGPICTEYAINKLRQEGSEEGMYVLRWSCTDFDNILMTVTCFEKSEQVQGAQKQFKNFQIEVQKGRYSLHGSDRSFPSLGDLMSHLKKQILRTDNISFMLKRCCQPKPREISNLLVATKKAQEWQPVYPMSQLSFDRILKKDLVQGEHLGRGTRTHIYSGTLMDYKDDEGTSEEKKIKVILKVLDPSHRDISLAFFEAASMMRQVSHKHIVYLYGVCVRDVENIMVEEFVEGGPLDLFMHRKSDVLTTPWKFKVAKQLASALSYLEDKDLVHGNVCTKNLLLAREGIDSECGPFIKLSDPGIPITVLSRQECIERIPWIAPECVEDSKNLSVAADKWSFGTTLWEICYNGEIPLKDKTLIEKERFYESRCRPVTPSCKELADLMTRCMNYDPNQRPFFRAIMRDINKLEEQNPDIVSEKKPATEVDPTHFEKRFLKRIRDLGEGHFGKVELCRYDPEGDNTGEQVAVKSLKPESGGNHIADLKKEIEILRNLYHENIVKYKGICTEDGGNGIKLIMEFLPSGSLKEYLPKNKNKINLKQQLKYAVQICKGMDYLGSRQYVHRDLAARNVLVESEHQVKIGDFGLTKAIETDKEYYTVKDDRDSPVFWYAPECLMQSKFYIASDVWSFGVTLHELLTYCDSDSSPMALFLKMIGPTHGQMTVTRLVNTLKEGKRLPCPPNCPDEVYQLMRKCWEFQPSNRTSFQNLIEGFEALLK

Row | Structure (SMILES) | Ki (JAK2) [nM] | Ki (JAK1) [nM] | IC50 [1] [nM] | JAK2 pKi (JAK2) | JAK1 pKi (JAK1) | BEAS2B pIC50 [1]
1 | CCc1cc(O)ccc1-c1ccc2c(-c3nc(C4=CCN(CCc5ccccc5)CC4)c[nH]3)n[nH]c2c1F [Example 135] | 1 to 10 | 1 to 10 | 100 to 316 | – | – | –
2 | CCOC(=O)C1=C(c2c[nH]c(-c3n[nH]c4cc(-c5ccc(O)cc5CC)ccc34)n2)CCNC1 [Example 354] | 0.1 to 1 | 0.1 to 1 | 31.6 to 100 | – | – | –
3 | CCc1cc(O)ccc1-c1ccc2c(-c3nc(C4=CCN(CCCOC)CC4)c[nH]3)n[nH]c2c1 [Example 56] | – | – | 3.16 to 10 | A (A represents a pKi value ≥10 (Ki≤0.1 nM)) | A (A represents a pKi value ≥10 (Ki≤0.1 nM)) | –
4 | CCc1cc(O)ccc1-c1ccc2c(-c3nc(C4=CCN(Cc5ccn[nH]5)CC4)c[nH]3)n[nH]c2c1F [Example 137] | 0.1 to 1 | 0.1 to 1 | 10 to 31.6 | – | – | –
5 | CCc1cc(O)ccc1-c1ccc2c(-c3nc(C4=CC[C@H](C)N(CCS(=O)(=O)NC)C4)c[nH]3)n[nH]c2c1F [Example 277] | 0.1 to 1 | 1 to 10 | 31.6 to 100 | – | – | –
6 | CCc1cc(O)ccc1-c1ccc2c(-c3nc(C4=CCN(Cc5ccn[nH]5)C4)c[nH]3)n[nH]c2c1 [Example 143] | – | – | 10 to 31.6 | A (A represents a pKi value ≥10 (Ki≤0.1 nM)) | A (A represents a pKi value ≥10 (Ki≤0.1 nM)) | –
7 | CCc1cc(O)ccc1-c1ccc2c(-c3nc(C4=CCCN(C(=O)OC)C4)c[nH]3)n[nH]c2c1 [Example 161] | 1 to 10 | 0.1 to 1 | 31.6 to 100 | – | – | –
8 | CCc1cc(O)c(C)cc1-c1ccc2c(-c3nc(C4=CCNC4)c[nH]3)n[nH]c2c1F [Example 328] | 1 to 10 | 0.1 to 1 | 10 to 31.6 | – | – | –
9 | CCc1cc(O)ccc1-c1ccc2c(-c3nc(C4=CCN(CC5CCCO5)CC4)c[nH]3)n[nH]c2c1F (stereo not drawn) [Example 62] | – | 0.1 to 1 | 10 to 31.6 | A (A represents a pKi value ≥10 (Ki≤0.1 nM)) | – | –
10 | CCc1cc(O)ccc1-c1ccc2c(-c3nc(C4=CC[C@H](C)N(C5CCOCC5)C4)c[nH]3)n[nH]c2c1F [Example 268] | 0.1 to 1 | 0.1 to 1 | 10 to 31.6 | – | – | –
11 | CCc1cc(O)ccc1-c1ccc2c(-c3nc(C4=CC[C@H](C)N(CCS(C)(=O)=O)C4)c[nH]3)n[nH]c2c1F [Example 276] | 0.1 to 1 | 1 to 10 | 31.6 to 100 | – | – | –
12 | CCc1cc(O)ccc1-c1ccc2c(-c3nc(C4=CCN(CC5COC5)C4)c[nH]3)n[nH]c2c1 [Example 71] | – | – | 3.16 to 10 | A (A represents a pKi value ≥10 (Ki≤0.1 nM)) | A (A represents a pKi value ≥10 (Ki≤0.1 nM)) | –
13 | CCc1cc(O)ccc1-c1ccc2c(-c3nc(C4=CCN(Cc5cn[nH]c5)C4)c[nH]3)n[nH]c2c1 [Example 296] | – | – | 10 to 31.6 | A (A represents a pKi value ≥10 (Ki≤0.1 nM)) | A (A represents a pKi value ≥10 (Ki≤0.1 nM)) | –
14 | CCc1cc(O)ccc1-c1ccc2c(-c3nc(C4=CC[C@H](C)N([C@H]5C[C@H](O)C5)C4)c[nH]3)n[nH]c2c1F [Example 337] | 0.1 to 1 | 0.1 to 1 | 10 to 31.6 | – | – | –
15 | CCc1cc(O)ccc1-c1ccc2c(-c3nc(C4=CCN(CCNC(=O)C(C)C)CC4)c[nH]3)n[nH]c2c1 [Example 102] | – | – | 3.16 to 10 | A (A represents a pKi value ≥10 (Ki≤0.1 nM)) | A (A represents a pKi value ≥10 (Ki≤0.1 nM)) | –
16 | CCc1cc(O)ccc1-c1ccc2c(-c3nc(C4=CCN[C@H](CO)C4)c[nH]3)n[nH]c2c1F [Example 386] | 0.1 to 1 | 0.1 to 1 | – | – | – | C (C represents a pIC50 value between 7 (included) and 7.5)
17 | CCc1cc(O)ccc1-c1ccc2c(-c3nc(C4=CCN(CCSC)CC4)c[nH]3)n[nH]c2c1 [Example 76] | 0.1 to 1 | 0.1 to 1 | 10 to 31.6 | – | – | –
18 | Oc1ccc(-c2ccc3c(-c4nc(C5=CCNC5)c[nH]4)n[nH]c3c2)c(CC(F)(F)F)c1 [Example 378] | 0.1 to 1 | 0.1 to 1 | 31.6 to 100 | – | – | –

Row | Structure (SMILES) | Ki (JAK2) [nM] | Ki (JAK1) [nM] | IC50 [1] [nM] | JAK2 pKi (JAK2) | JAK1 pKi (JAK1) | BEAS2B pIC50 [1]
19 | CCc1cc(O)ccc1-c1ccc2c(-c3nc(C4=CCN(C(=O)CNCCOC)C4)c[nH]3)n[nH]c2c1F [Example 362] | – | 0.1 to 1 | 31.6 to 100 | A (A represents a pKi value ≥10 (Ki≤0.1 nM)) | – | –
20 | CCc1cc(O)ccc1-c1ccc2c(-c3nc(C4=CCCN(C(=O)c5ccccc5)C4)c[nH]3)n[nH]c2c1 [Example 163] | 1 to 10 | 1 to 10 | 31.6 to 100 | – | – | –
21 | CCc1cc(O)ccc1-c1ccc2c(-c3nc(C4=CCN(Cc5cnc[nH]5)CC4)c[nH]3)n[nH]c2c1 [Example 131] | – | – | 10 to 31.6 | A (A represents a pKi value ≥10 (Ki≤0.1 nM)) | A (A represents a pKi value ≥10 (Ki≤0.1 nM)) | –
22 | CCc1cc(O)ccc1-c1ccc2c(-c3nc(C4=CCN(CCNS(C)(=O)=O)C4)c[nH]3)n[nH]c2c1 [Example 113] | – | 0.1 to 1 | 10 to 31.6 | A (A represents a pKi value ≥10 (Ki≤0.1 nM)) | – | –
23 | CCc1cc(O)ccc1-c1ccc2c(-c3nc(C4=CCN(CCNC(=O)C5CCC5)CC4)c[nH]3)n[nH]c2c1F [Example 317] | 0.1 to 1 | 0.1 to 1 | 10 to 31.6 | – | – | –
24 | CCc1cc(O)ccc1-c1ccc2c(-c3nc(C4=CCN(C[C@@H](C)CO)C4)c[nH]3)n[nH]c2c1F [Example 318] | 0.1 to 1 | 0.1 to 1 | 10 to 31.6 | – | – | –
25 | CCc1cc(O)ccc1-c1ccc2c(-c3nc(C4=C[C@@H](C)NC4)c[nH]3)n[nH]c2c1F [Example 292] | 0.1 to 1 | 0.1 to 1 | 3.16 to 10 | – | – | –
26 | CCc1cc(O)ccc1-c1ccc2c(-c3nc(C4=C[C@H](CO)NCC4)c[nH]3)n[nH]c2c1F [Example 348] | – | 0.1 to 1 | 31.6 to 100 | A (A represents a pKi value ≥10 (Ki≤0.1 nM)) | – | –
27 | CCc1cc(O)ccc1-c1ccc2c(-c3nc(C4=CCN(S(C)(=O)=O)CC4)c[nH]3)n[nH]c2c1F [Example 155] | 0.1 to 1 | 1 to 10 | 10 to 31.6 | – | – | –
28 | CCc1cc(O)ccc1-c1ccc2c(-c3nc(C4=CCN(C(=O)[C@H](CO)NC)C4)c[nH]3)n[nH]c2c1F [Example 385] | – | 0.1 to 1 | 31.6 to 100 | A (A represents a pKi value ≥10 (Ki≤0.1 nM)) | – | –
29 | CCc1cc(O)ccc1-c1ccc2c(-c3nc(C4=CCN(CC(=O)NC(C)(C)C)CC4)c[nH]3)n[nH]c2c1 [Example 79] | 0.1 to 1 | 0.1 to 1 | 10 to 31.6 | – | – | –
30 | CCc1cc(O)ccc1-c1ccc2c(-c3nc(C4=CCN(C(=O)CCNC)C4)c[nH]3)n[nH]c2c1F [Example 380] | – | 0.1 to 1 | 31.6 to 100 | A (A represents a pKi value ≥10 (Ki≤0.1 nM)) | – | –
31 | CCc1cc(O)ccc1-c1ccc2c(-c3nc(C4=CC5COCC(C4)N5)c[nH]3)n[nH]c2c1F (stereo not drawn) [Example 228] | 0.1 to 1 | 0.1 to 1 | 10 to 31.6 | – | – | –
32 | CCc1cc(O)ccc1-c1ccc2c(-c3nc(C4=CCN(C5CCOCC5)CC4)c[nH]3)n[nH]c2c1F [Example 61] | – | 0.1 to 1 | 10 to 31.6 | A (A represents a pKi value ≥10 (Ki≤0.1 nM)) | – | –
33 | CCc1cc(O)ccc1-c1ccc2c(-c3nc(C4=C[C@H](CO)N(CCCO)C4)c[nH]3)n[nH]c2c1F [Example 264] | – | 0.1 to 1 | 10 to 31.6 | A (A represents a pKi value ≥10 (Ki≤0.1 nM)) | – | –
34 | CCc1cc(O)ccc1-c1ccc2c(-c3nc(C4=C[C@H](CC(=O)OC)NC4)c[nH]3)n[nH]c2c1F [Example 253] | – | – | 3.16 to 10 | A (A represents a pKi value ≥10 (Ki≤0.1 nM)) | A (A represents a pKi value ≥10 (Ki≤0.1 nM)) | –
35 | CCc1cc(O)ccc1-c1ccc2c(-c3nc(C4=C[C@@H](C(=O)OC)NC4)c[nH]3)n[nH]c2c1F [Example 251] | 0.1 to 1 | 0.1 to 1 | 10 to 31.6 | – | – | –
36 | CCc1cc(O)ccc1-c1ccc2c(-c3nc(C4=C[C@H](CO)N(CCC(C)(C)O)C4)c[nH]3)n[nH]c2c1F [Example 329] | – | – | 10 to 31.6 | A (A represents a pKi value ≥10 (Ki≤0.1 nM)) | A (A represents a pKi value ≥10 (Ki≤0.1 nM)) | –

From US20240092758A1, “IMIDAZOLO INDAZOLE COMPOUNDS AS JAK INHIBITORS” (Theravance Biopharma R&D IP, LLC, priority 2021, published 2024)
